Results taken from ChEMBL document CHEMBL1201862, “PubChem BioAssay data set” (2004).
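48-hour exposure; five concentrations; linearly interpolated endpoints. GI50 = concentration required for 50% inhibition of growth.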 Activity calls are given as the source filed them. No stated cut-off is given here; in the data, active = GI50 up to about 1.1 µM and inactive = higher.

What was measured:
Assay in all cases: NCI tumour cell line growth inhibition, 48 h
786-0 = test system: 786-0
CAKI-1 = test system: CAKI-1
CCRF-CEM = test system: CCRF-CEM
HL-60 = test system: HL-60
KM12 = test system: KM12
MOLT-4 = test system: MOLT-4
NCI/ADR-RES = test system: NCI/ADR-RES
OVCAR-5 = test system: OVCAR-5
SF-268 = test system: SF-268
SK-MEL-28 = test system: SK-MEL-28
SK-OV-3 = test system: SK-OV-3
SN12C = test system: SN12C
SR = test system: SR
TK-10 = test system: TK-10
UACC-257 = test system: UACC-257
UO-31 = test system: UO-31
A498 = test system: A498
NCI-H226 = test system: NCI-H226
HOP-92 = test system: HOP-92

Row | Compound | GI50 (786-0) | GI50 (CAKI-1) | GI50 (CCRF-CEM) | GI50 (HL-60) | GI50 (KM12) | GI50 (MOLT-4) | GI50 (NCI/ADR-RES) | GI50 (OVCAR-5) | GI50 (SF-268) | GI50 (SK-MEL-28) | GI50 (SK-OV-3) | GI50 (SN12C) | GI50 (SR) | GI50 (TK-10) | GI50 (UACC-257) | GI50 (UO-31) | GI50 (A498) | GI50 (NCI-H226) | GI50 (HOP-92)
1 | COc1ccc(C2Oc3c(cccc3OC)C=C2[N+](=O)[O-])cc1 (centres undefined) | 2.31 µM (inactive) | 1.58 µM (inactive) | 0.451 µM (active) | 2.17 µM (inactive) | 1.92 µM (inactive) | 1.19 µM (inactive) | 2.58 µM (inactive) | 2.26 µM (inactive) | 2.69 µM (inactive) | 1.91 µM (inactive) | 4.26 µM (inactive) | 2.02 µM (inactive) | 2 µM (inactive) | 2.91 µM (inactive) | 2.96 µM (inactive) | 1.71 µM (inactive) | – | – | –
2 | CC1(C)C2C=CC1(C)C1(CC2)OCCO1 (centres undefined) | > 100 µM (inactive) | – | > 100 µM (inactive) | > 100 µM (inactive) | > 100 µM (inactive) | > 100 µM (inactive) | > 100 µM (inactive) | > 100 µM (inactive) | > 100 µM (inactive) | > 100 µM (inactive) | > 100 µM (inactive) | > 100 µM (inactive) | > 100 µM (inactive) | > 100 µM (inactive) | > 100 µM (inactive) | > 100 µM (inactive) | > 100 µM (inactive) | > 100 µM (inactive) | –
3 | CN1C(=O)C(O)C[C@@H]1c1ccccc1 (some centres undefined) | > 100 µM (inactive) | > 100 µM (inactive) | > 100 µM (inactive) | > 100 µM (inactive) | > 100 µM (inactive) | > 100 µM (inactive) | > 100 µM (inactive) | > 100 µM (inactive) | > 100 µM (inactive) | > 100 µM (inactive) | > 100 µM (inactive) | > 100 µM (inactive) | > 100 µM (inactive) | > 100 µM (inactive) | > 100 µM (inactive) | > 100 µM (inactive) | – | > 100 µM (inactive) | > 100 µM (inactive)
4 | COc1ccc(CCn2ccc(=O)c(O)c2C)cc1OC | 5 µM (inactive) | 2.48 µM (inactive) | – | 32.2 µM (inactive) | 40.3 µM (inactive) | 16 µM (inactive) | 7.45 µM (inactive) | 26.7 µM (inactive) | 2.37 µM (inactive) | – | 21.2 µM (inactive) | – | 28.4 µM (inactive) | 5.87 µM (inactive) | 6.18 µM (inactive) | – | – | – | 20.4 µM (inactive)
